row,SMILES,melting point [°C]
1,COCc1c(CNS(=O)(=O)c2cccc(Cl)c2)nn(-c2ccc(Cl)cc2Cl)c1-c1ccc(Cl)cc1,154
2,COc1cccc(N(CCN2CCC(C(=O)c3ccc(F)cc3)CC2)C(=O)c2cccc(N)c2)c1,141 to 142
3,CCOC(=O)CNC(=O)C1(CC)CCCCCCC1,65 to 67
4,CN1CCN(CCCNc2ncc3cc(-c4c(Cl)cccc4Cl)c(NC(=O)Nc4cccc5ccccc45)nc3n2)CC1,186 to 189
5,COc1ccc(S(=O)(=O)C2(C(=O)O)CCN(C(C)(C)C)CC2)cc1,204
6,N#CCOc1cc2c(cc1C#Cc1ccccc1)NC(=O)CC(c1cccc(-n3ccnc3)c1)=N2,214
7,COC(=O)c1cc2c(cc1OC)OCO2,74 to 75
8,Cc1ccc(-c2cc(C(=O)O)nn2Cc2ccc(C)c(Cl)c2)cc1,108
9,c1ccc(C(c2ccccc2)N2CCCC2)cc1,69 to 72
10,O=c1c2ccccc2[nH]c2c(OCCN(CCCl)CCCl)cccc12,131 to 133
11,CNc1ccc(Nc2nc(N3CCOCC3)nc(-n3c(C(F)F)nc4c(OC)cccc43)n2)cn1,218 to 221
12,CC(=O)Nc1cccc(C(=O)c2[nH]c3cc(Cl)ccc3c2NC(C)=O)c1,225 to 228
13,CS(=O)(=O)N[C@@H](CCCCNC=O)C(=O)NC[C@H](CC1(C(=O)N[C@@H](Cc2ccc(O)cc2)C(=O)O)CCCC1)C(=O)O,56 to 60
14,COc1ccccc1CN[C@H]1CCCN[C@H]1c1ccoc1 (relative stereo),> 247
15,CSc1cc(Oc2cccc(C(F)(F)F)c2)nc(C(=O)Nc2ccccc2)c1,115 to 119
16,CNC(=O)CC1CSC2=C(C(=O)OC(C)C)CCN21 (stereo not given),79 to 95
17,O=C(O)C1(c2ccc3c(c2)OCO3)CC(F)(F)C1(F)F (stereo not given),168 to 169
18,COc1ccc(CCNS(=O)(=O)c2ccc([N+](=O)[O-])cc2)cc1,92 to 93
19,OCC1OC(n2cnc3c(NCC(c4ccccc4)c4ccccc4)nc(Cl)nc32)C(O)C1O (stereo not given),120 to 123
20,COc1ccc(CN(CCN(C)CCCCCCNC(=NCCCOc2cccc(CN3CCCCC3)c2)NC#N)c2ccccn2)cc1,79
21,Nc1ccccc1Oc1ccccc1Cl,44 to 45
22,CS(=O)c1ncc(Cl)cn1 (stereo not given),48
23,O=S(=O)(Nc1ccc2c(OCc3ccc(-c4ccc(C(F)(F)F)cc4)cc3F)cccc2c1)C(F)(F)F,98 to 100

row,SMILES,melting point [°C]
1,O=S1(=O)c2cccc3cccc(c23)N1CCCN1CCC(n2c(O)nc3ccccc32)CC1,253
2,ClC(Cl)=CCOc1cc(Cl)c(OCc2ccncc2)c(Cl)c1,74
3,COC(=O)CS(=O)(=O)Nc1ccc(F)cc1C(F)(F)F,84 to 86
4,Cc1cccc(-c2nc3ccc(Cl)cn3c2-c2ccnc(-c3ccc(CN4CCOCC4)cc3)c2)n1,157
5,C[C@@H]1CNC(=O)c2cc3cc(F)cc(Br)c3n21,188
6,CN(C)CCn1c(=O)c2c3oc4ccccc4oc3c3[nH]c4ccc(O)cc4c3c2c1=O,> 360
7,COc1ccccc1CNc1ccc2cc(Nc3nc(C(F)(F)F)co3)ccc2n1,144
8,CCOC(=O)c1ncn2c1CN=C(c1cccs1)c1cc(C#C[Si](C)(C)C)ccc1-2,124 to 127
9,COc1cc2c(c(OC)c1OC)C(=O)C(CCCCCCC1Cc3cc(OC)c(OC)c(OC)c3C1=O)C2 (stereo not given),129 to 130
10,COc1cc2c(cc1Cl)C(Cl)(c1ccccc1Cl)C(=O)N2 (stereo not given),237 to 240
11,O=C1c2ccccc2C(=O)N1OCC1COCOC1,98 to 106
12,CCCn1c(=O)c2[nH]c(C(C)(C)C)nc2n(CCNC(C)=O)c1=O,194 to 195
13,COc1cccc(OC(=O)N2CCCC2=O)c1,45 to 47
14,O=C(CCc1ccc([N+](=O)[O-])cc1)NCCO,122 to 125
15,CCOc1ccc(-c2ccc(O)c(C=O)c2)cc1,94 to 95
16,CNC1(c2ccccc2)CCC(c2[nH]c3ccccc3c2CCc2ccncc2)CC1 (stereo not given),224 to 227
17,O=C(CC1COCCO1)NC1CCC(CCN2CCN(c3nccc4c3OCC4)CC2)CC1 (stereo not given),181
18,COC(=O)C(C)(C)S(=O)(=O)N1CCC(c2ccc(-n3ccc(OC)n3)c(C)c2)CC1,109 to 110
19,Cc1c(C)c(C(CO)c2ccc(C(C)C)cc2)c(O)c(C)c1Br (stereo not given),96 to 97
20,O=S(O)c1ccc2c(c1)CCCC2,82 to 85
21,NC(=O)c1cccc(OCCOC2CCNCC2)c1,144 to 146
22,CC1CCC(N(CC2CCC(CN(C(=O)Nc3ccc(N4CCCC4)cc3)C3CCC(C)CC3)CC2)C(=O)Nc2ccc(N3CCCC3)cc2)CC1 (stereo not given),149 to 155
23,CC(=O)c1ccc(-n2c(C)ccc2-c2ccc(S(C)(=O)=O)cc2)cc1,179 to 180

row,SMILES,melting point [°C]
1,Cc1cc(C=CC(=O)O)c(Cl)nc1C,150 to 158
2,NCCN1CCC(Nc2nc3ccccc3n2Cc2ccc(CO)o2)CC1,165
3,CC(C(=O)NCC(=O)OCc1ccccc1)N1CCN(CC(=O)OC(C)(C)C)CCN(CC(=O)OC(C)(C)C)CCN(CC(=O)OC(C)(C)C)CC1 (stereo not given),116 to 117
4,COc1cc2ncc(N[C@@H]3C[C@H]4CC[C@@H]3C4)nc2cc1OC,184 to 186
5,COc1cc2ncnc(NC3=CC(=O)C(N4CCCCC4)=CC3=O)c2cc1OC,226 to 227
6,N#CCc1cc(Cl)cc(Cc2nc3c(F)c(F)cc(F)c3s2)c1,114 to 117
7,CN1C(=O)C2C3C=CC(C3)C2(c2ccc(F)c(F)c2)C1=O (stereo not given),116 to 120
8,CCCCCC#CCC(CC#CCCCCC)(C(=O)NO)S(=O)(=O)c1ccc(OC)cc1,83 to 84
9,Nc1nnc(-c2ccc3ncn(-c4ccc(OC(F)(F)F)c(Cl)c4)c3c2)o1,238 to 239
10,O=C(Nc1ccc(C(F)(F)F)cc1)c1cc(-c2ccc(F)cc2F)ccc1O,227 to 228
11,COc1cc2c(cc1OC)-c1c(OC)c(OC)cc3c1C(C2)N(C)CC3 (stereo not given),112 to 114
12,O=C(O)Cc1cc(C(=O)C=Cc2ccc(F)cc2)ccc1O,212
13,Nc1ccc(OCCCOc2ccc(N)cc2[N+](=O)[O-])c([N+](=O)[O-])c1,152 to 153
14,CC1(C)NC(=O)N(CC#CI)C1=O,118 to 126
15,O=C1Nc2cccc(F)c2C(=O)N2CC=C[C@@H]12,238 to 240
16,COc1ccc(Cl)c(Oc2c(C=O)nc(N3CCOCC3)nc2NS(=O)(=O)c2ccc(C(C)C)cn2)c1,194
17,N#Cc1ccc(-c2ccc(OCCCCC(=O)NO)cc2)cc1,142 to 143
18,COc1ccccc1C(=Cc1ccccc1[N+](=O)[O-])C(=O)O,217 to 219
19,Oc1ccc2c(c1)CCCC(c1ccccc1)=C2c1ccc(OCCCl)cc1,238 to 240
20,CCCCCCCCCCCC(=O)N(CCO)CCNCCO,94
21,COC(=O)[C@H]1[C@@H]2CC[C@@](NC(=O)OC(C)(C)C)(C(=O)OC)[C@@H]21,193 to 194
22,C#Cc1cnc2c(C)cc(OC(SC)C(=O)NC(C)(C#C)COC)cc2c1 (stereo not given),108 to 109

# Next, values leading:
row,melting point [°C],SMILES
1,130,CCCCOc1ccc(C(=O)NC[C@@H](C(=O)NO)N2CCN(S(C)(=O)=O)CC2)cc1
2,215 to 217,CC1(C)OC(=S)Nc2ccc(-c3cccc(CC#N)n3)cc21
3,56 to 58,C/C(=C\CCC1(C)CCc2cc(O[Si](C)(C)C(C)(C)C)c(C)c(C)c2O1)CCl (stereo not given)
4,180,O=C(O)CCCc1cc2nc(Cl)ccc2n1S(=O)(=O)c1ccc(F)cc1
5,58 to 61,CCOC(=O)CCC(CC(=O)c1ccc(N)cc1)C(=O)OCC (racemic)
6,66 to 67,Cn1nc(C#N)nc1NCCCOc1cccc(CN2CCCCC2)c1
7,166 to 167,CC1CC(Nc2nnc(-c3cccc(Oc4ccc(C(C)(C)C)cc4)c3)s2)CC(C)(C)C1 (stereo not given)
8,66 to 68,Cc1ccc(Nc2ccccc2NC(=O)CCCc2ccc(N=C(N)c3cccs3)cc2)cc1
9,148 to 149,Cc1nc(-n2cc(C(F)(F)F)ccc2=O)sc1C(=O)NCc1ccccc1
10,85 to 86,CCOC(=O)CC(O)CC(O)C=Cc1c(-c2ccccc2)ccnc1C (stereo not given)
11,54 to 56,CCOc1ccc(N)cc1OC
12,128 to 129,COc1cc2c(cc1O)CCN(Cc1cccc(C)c1)C2
13,40 to 44,CNCCCOc1ccc(-c2nnc(CSCCOc3ccccc3)o2)cc1
14,171 to 173,CC(=O)c1sc2sc(-c3ccncc3)c(C)c2c1C
15,120 to 121,CCOC(=O)C(C)Cc1cccc(-c2nc(=O)c3ccccc3s2)n1 (stereo not given)
16,224 to 228,Sc1nnc(-c2cnccn2)s1

row,melting point [°C],SMILES
1,275 to 278,Cc1nc(-n2ccc(O)cc2=O)sc1C(=O)NCc1ccncc1
2,87.7,Clc1ccc(C=Cc2ccccc2)cc1Cl
3,104 to 105,CC(C)c1ccc(OCC(=O)Cl)cc1
4,> 270,O=C(O)C1CCC(c2cc3cccnc3c(=O)[nH]2)CC1 (stereo not given)
5,96 to 99,Cc1ccc(S(=O)(=O)OCC2CNC(=O)O2)cc1 (stereo not given)
6,125 to 127,O=C(Cn1ccnc1[N+](=O)[O-])c1cccnc1
7,94,CCCCc1c(-c2cccnn2)ssc1=S
8,184,CC(Cc1nc(-c2ccccc2)cc2ccccc12)C(=O)O (stereo not given)
9,95,O=C(O)c1ccc(F)c(Nc2ncccc2-c2ccncn2)c1
10,160 to 164,Cc1ccsc1C(Cc1ccccc1NCN1C(=O)CCC1=O)N(C)C=O (stereo not given)
11,96 to 98,CCOC(=O)c1c(CCCN(CC)CC)nc2cc(OC)c(OC)cc2c1-c1ccc(OC)c(OC)c1
12,> 300,Cc1cc2n(C)c3cc(Cl)ncc3c(=O)n2n1
13,132,CCOC(=O)c1nc2c(Cl)nc(Cl)c(Cl)n2c1Cl
14,240 to 241,CC1(C)CCc2c(N3CCOCC3)nc3sc4c(NCc5ccncc5)ncnc4c3c2C1
15,61 to 68,CCOC(=O)c1ccc(NCCCCCCCCc2ccccc2)cc1
16,80 to 82,COc1ccc(-c2nc(C)c(C(=O)OCC[Si](C)(C)C)s2)cc1

# Source: a melting point compilation (Tetko et al.; mined from patent text by program, amines drawn as free bases though some values may be those of a salt)
